The text below walks through data of ChEMBL document CHEMBL1833788, “Selective water-soluble gelatinase inhibitor prodrugs” (J Med Chem, 2011).

For data set [1], the system named is Mus musculus. The data set is described as follows: Terminal half life in C57B1/6 mouse plasma assessed as N-(4-(4-(thiiran-2-ylmethylsulfonyl)phenoxy)phenyl)acetamide level at […], iv administered as single bolus dose. The class given is ADME, organism-based. As to conditions: in vivo, BLD = below limit of detection; call rule not given here.
For data set [2], the system named is Mus musculus. The data set is described as follows: Prodrug conversion in C57B1/6 mouse assessed as N-(4-(4-(thiiran-2-ylmethylsulfonyl)phenoxy)phenyl)acetamide level in plasma at […], iv administered as single bolus dose after 62 to 66 mins by reversed-phase LC/MS analysis. The following applies: in vivo.
Data set [3] relates to Mus musculus. The data set is described as follows: Prodrug conversion in C57B1/6 mouse assessed as N-(4-(4-(thiiran-2-ylmethylsulfonyl)phenoxy)phenyl)acetamide level in plasma at […], iv administered as single bolus dose after 7 to 8 mins by reversed-phase LC/MS analysis. As to conditions: in vivo.
The test system of data set [4] is Mus musculus. Put plainly: Prodrug conversion in C57B1/6 mouse assessed as N-(4-(4-(thiiran-2-ylmethylsulfonyl)phenoxy)phenyl)acetamide level in plasma at […], iv administered as single bolus dose after 120 to 123 mins by reversed-phase LC/MS analysis. As to conditions: in vivo.
Data set [5] relates to Mus musculus. Put plainly: AUC (0 to infinity) in C57B1/6 mouse plasma assessed as N-(4-(4-(thiiran-2-ylmethylsulfonyl)phenoxy)phenyl)acetamide level at […], iv administered as single bolus dose. The following applies: in vivo, BLD = below limit of detection. The class given is ADME, organism-based.
Data set [6] concerns Mus musculus. The data set is described as follows: Terminal half life in C57B1/6 mouse plasma assessed as parent compound level at […], iv administered as single bolus dose. Type of data set: ADME, organism-based. As to conditions: in vivo.
Data set [7] concerns Mus musculus. Put plainly: Distribution half life in C57B1/6 mouse plasma assessed as N-(4-(4-(thiiran-2-ylmethylsulfonyl)phenoxy)phenyl)acetamide level at […], iv administered as single bolus dose. Type of data set: ADME, organism-based. The following applies: in vivo.
Data set [8] deals with Mus musculus. Put plainly: Prodrug conversion in C57B1/6 mouse assessed as N-(4-(4-(thiiran-2-ylmethylsulfonyl)phenoxy)phenyl)acetamide level in plasma at […], iv administered as single bolus dose after 11 to 12 mins by reversed-phase LC/MS analysis. As to conditions: in vivo.
The subject of data set [9] is Mus musculus. Put plainly: Prodrug conversion in C57B1/6 mouse assessed as N-(4-(4-(thiiran-2-ylmethylsulfonyl)phenoxy)phenyl)acetamide level in plasma at […], iv administered as single bolus dose after 2 to 3 mins by reversed-phase LC/MS analysis. As to conditions: in vivo.
For data set [10], the system named is Mus musculus. The data set is described as follows: Volume of distribution in C57B1/6 mouse plasma assessed as parent compound level at […], iv administered as single bolus dose. Type of data set: ADME, organism-based. As to conditions: in vivo.
In data set [11] the test system is Mus musculus. The data set is described as follows: AUC (0 to last) in C57B1/6 mouse plasma assessed as N-(4-(4-(thiiran-2-ylmethylsulfonyl)phenoxy)phenyl)acetamide level at […], iv administered as single bolus dose. Type of data set: ADME, organism-based. The following applies: in vivo.
In data set [12] the test system is Mus musculus. Put plainly: Prodrug conversion in C57B1/6 mouse assessed as N-(4-(4-((Thiiran-2-ylmethyl)sulfonyl)phenoxy)phenyl) hydroxylamine level in urine at […], iv administered as single dose by reversed-phase LC/MS analysis. Type of data set: ADME, organism-based. As to conditions: in vivo.
In data set [13] the test system is Mus musculus. The data set is described as follows: AUC (0 to infinity) in C57B1/6 mouse plasma assessed as parent compound level at […], iv administered as single bolus dose. The following applies: in vivo. Type of data set: ADME, organism-based.
Data set [14] concerns Mus musculus. The data set is described as follows: Clearance in C57B1/6 mouse plasma assessed as parent compound level at […], iv administered as single bolus dose. The class given is ADME, organism-based. The following applies: in vivo.
Data set [15] relates to Mus musculus. Put plainly: Prodrug conversion in C57B1/6 mouse assessed as N-(4-(4-((Thiiran-2-ylmethyl)sulfonyl)phenoxy)phenyl) hydroxylamine level in plasma at […], iv administered as single dose by reversed-phase LC/MS analysis. As to conditions: in vivo. Type of data set: ADME, organism-based.
For data set [16], the system named is Mus musculus. Put plainly: Prodrug conversion in C57B1/6 mouse assessed as N-(4-(4-(thiiran-2-ylmethylsulfonyl)phenoxy)phenyl)acetamide level in plasma at […], iv administered as single bolus dose after 30 mins by reversed-phase LC/MS analysis. As to conditions: in vivo, 0.5 h.
Data set [17] can be described thus: Solubility of the compound in aqueous solution at 10 mg/ml by UV spectroscopy. The class given is physicochemical.
Data set [18] has as its system Plasma. The data set is described as follows: Half life in human plasma at 10 mM by reversed-phase HPLC/UV analysis. The following applies: 10000 µM. The class given is ADME, cell-free.
Data set [19] deals with Blood. The data set is described as follows: Prodrug conversion in human blood assessed as release of 4-[4-((Thiiran-2-yl)methylsulphonyl)phenoxy]benzamine at 10 mM after 30 mins by reversed-phase HPLC/UV analysis. The class given is ADME, tissue-based. As to conditions: 0.5 h, 10000 µM.
Data set [20] is described as follows: Chemical stability of the compound in aqueous solution at 10 mg/ml by HPLC after 1 month. The class given is physicochemical. As to conditions: buffer, 730.5 h.
The subject of data set [21] is Blood. The data set is described as follows: Half life in human blood at 10 mM by reversed-phase HPLC/UV analysis. Type of data set: ADME, tissue-based. As to conditions: 10000 µM.
Data set [22] concerns Plasma. Put plainly: Metabolic stability of the compound in human plasma at 10 mM after 2 mins by reversed-phase HPLC/UV analysis. The class given is ADME, cell-free. The following applies: 10000 µM.
Data set [23] is described as follows: Chemical stability of the compound in aqueous solution at 10 mg/ml by HPLC up to 2 hrs. The class given is physicochemical. As to conditions: buffer.
The subject of data set [24] is Liver microsomes. The data set is described as follows: Prodrug conversion in rat liver microsomes assessed as release of 2-amino-5-(4-(thiiran-2-ylmethylsulfonyl)phenoxy)phenol after 30 mins by HPLC/MS analysis. Type of data set: ADME, Microsome. As to conditions: 0.5 h. On the technique in general: Liver microsomes are vesicles of endoplasmic reticulum, rich in cytochrome P450 enzymes.

Data set [25] has as its system Liver microsomes. The data set is described as follows: Half life in rat liver microsomes at 100 uM by reversed-phase HPLC/UV analysis. Type of data set: ADME, Microsome.
In data set [26] the test system is Salmonella typhimurium. The data set is described as follows: Induction of mutagenicity in Salmonella Typhimurium TA98 at 1 mg/mL after 48 hrs by Ames assay in presence of rat liver S9 metabolic activation system. Type of data set: toxicity, organism-based. The following applies: salmonella enterica subsp. enterica serovar typhimurium, s9, 48 h.
For data set [27], the system named is Salmonella typhimurium. The data set is described as follows: Induction of mutagenicity in Salmonella Typhimurium TA7001 to TA7006 at 1 mg/mL after 48 hrs by Ames assay in absence of rat liver S9 metabolic activation system. Type of data set: toxicity, organism-based. As to conditions: salmonella enterica subsp. enterica serovar typhimurium. (In general: In the Ames test, an excess of revertant colonies over the control signals mutagenicity.)

For the next data set, the system named is Liver. The data set is described as follows: Half life in mouse liver microsomes at 100 uM by reversed-phase HPLC/UV analysis. Type of data set: ADME, Microsome.
The subject of data set [28] is Salmonella typhimurium. The data set is described as follows: Induction of mutagenicity in Salmonella Typhimurium TA7001 to TA7006 at 1 mg/mL after 48 hrs by Ames assay in presence of rat liver S9 metabolic activation system. As to conditions: salmonella enterica subsp. enterica serovar typhimurium, s9, 48 h. The class given is toxicity, organism-based.
For data set [29], the system named is Salmonella typhimurium. Put plainly: Induction of mutagenicity in Salmonella Typhimurium TA98 at 1 mg/mL after 48 hrs by Ames assay in absence of rat liver S9 metabolic activation system. As to conditions: salmonella enterica subsp. enterica serovar typhimurium, s9, 48 h. Type of data set: toxicity, organism-based.
A short description of data set [30]: Apparent intrinsic clearance in human liver microsomes. Type of data set: ADME, Microsome.
Data set [31] deals with Liver microsomes. Put plainly: Half life in human liver microsomes at 100 uM by reversed-phase HPLC/UV analysis. Type of data set: ADME, Microsome.
Data set [32] has as its system Liver microsomes. Put plainly: Prodrug conversion in rat liver microsomes assessed as release of 4-(4-{[(1-oxidothiiran-2-yl)methyl]sulfonyl}phenoxy)aniline after 30 mins by HPLC/MS analysis. Type of data set: ADME, Microsome. As to conditions: 0.5 h.

For orientation: AUC means concentration integrated over time. In general, Vd refers to a proportionality between amount in the body and measured concentration, not a real space. For `Cl.Nc1ccc(Oc2ccc(S(=O)(=O)CC3CS3)cc2)cc1` (stereo not drawn), the entries for the “beta t1/2” value in the data set on Mus musculus [1] and with Mus musculus [6] were “BLD” and 21 min, respectively. Further, the Drug metabolism with Mus musculus [2] was 0.0273 µM; in the data set with Mus musculus [3], 0.192 µM; in the data set with Mus musculus [4], 0.00277 µM; in the data set with Mus musculus [8], 0.15 µM; in the data set on Mus musculus [9], 0.197 µM; in the data set with Mus musculus [12], “Not Active”. For the same compound, the Drug metabolism result in the data set on Mus musculus [15] is “Not Active”; in the data set on Mus musculus [16], 0.0958 µM. Moreover, the AUC result with Mus musculus [5] is “BLD”; in the data set on Mus musculus [13], 221 µM·min. Besides, in the data set on Mus musculus [7], the alphat1/2 was found to be 5.1 min. Besides, the Vd in the data set with Mus musculus [10] was determined as 0.532 L/kg. Also, the AUClast with Mus musculus [11] was found to be 7.71 µM·min. Further, the CL in the data set with Mus musculus [14] was determined as 0.0875 L/min/kg.
As a reminder, the solubility is how much of the substance goes into solution per volume. Lower therefore signals a poorly soluble substance. On to `NCC(=O)Nc1ccc(Oc2ccc(S(=O)(=O)CC3CS3)cc2)cc1` (stereo not drawn), for which the solubility in [17] was over 10000 µg/mL. In addition, the t1/2 is 32.4 min with Plasma [18] and 27.1 min in the data set on Blood [21]. Moreover, the Drug metabolism entry in the data set with Blood [19] was “Active”. Further, the Stability entry in data set [20] is recorded as “Stable”.
Take `N=C(N)NCCC[C@H](NC(=O)[C@@H](N)CCCNC(=N)N)C(=O)Nc1ccc(Oc2ccc(S(=O)(=O)CC3CS3)cc2)cc1` (stereo partly drawn): the solubility in [17] was over 10000 µg/mL. The values for the t1/2 with Plasma [18] and in the data set with Blood [21] were 11.8 min and 5.9 min, respectively. Besides, the Stability result in [20] is recorded as “Stable”.
On to `N=C(N)NCCC[C@H](NC(=O)[C@@H](N)CCCNC(=N)N)C(=O)Oc1ccc(Oc2ccc(S(=O)(=O)CC3CS3)cc2)cc1` (stereo partly drawn), for which the solubility in [17] was over 10000 µg/mL. The Stability entry (in the data set with Plasma [22]; in data set [23]) was “Unstable” in each case.
For orientation: CLint scaled means the capacity of the preparation to metabolise the compound, expressed as a volume cleared per time. Regarding `Nc1ccc(Oc2ccc(S(=O)(=O)CC3CS3)cc2)cc1` (stereo not drawn), the Drug metabolism entry with Liver microsomes [24] and with Liver microsomes [32] was “Active” throughout. For the same compound, the t1/2 in the data set on Liver microsomes [25] is on record as 23.4 min; in the data set on Liver, 27.3 min; in the data set with Liver microsomes [31], over 60 min. For the same compound, the Activity result with Salmonella typhimurium [26], in the data set on Salmonella typhimurium [27], in the data set on Salmonella typhimurium [28] and in the data set with Salmonella typhimurium [29] was “Non-toxic” each time. Also, in data set [30], the intrinsic metabolic clearance (CLint scaled) was under 10 mL/min/kg.
In data set [17], `NCCCC[C@H](N)C(=O)Nc1ccc(Oc2ccc(S(=O)(=O)CC3CS3)cc2)cc1` (stereo partly drawn) showed a solubility of over 10000 µg/mL. Further, the results for the t1/2 with Plasma [18] and with Blood [21] were 25.1 min and 15.3 min, respectively. Also, the Drug metabolism result with Blood [19] is given as “Active”. The Stability entry in data set [20] is “Stable”.
